Measurements: publication PMC10252837, “A Novel Time-Resolved Fluorescence Resonance Energy Transfer Assay for the Discovery of Small-Molecule Inhibitors of HIV-1 Tat-Regulated Transcription” (International Journal of Molecular Sciences, 2023)
Entries after “also recorded” stand apart in the source; their conditions may differ.

Legend:
[1] = test system: Tat activity (Tat-induced viral transcription); assay: microbe, parasite or virus in culture; format: cell-based, HIV-1
Protocol: (§1) (A) (Upper panel) Doxycycline (Dox)-inducible Tat-expressing bl-DTR cells cultured in 96-well plates treated with two-fold serial dilutions of each compound in the presence of Dox (50 ng/mL). At 24 h after treatment, the activity of firefly luciferase (F-Luc), indicating Tat activity, was determined as described in the Materials and Methods section. (Bottom panel) TZM-bl cells were treated with two-fold serial dilutions of the indicated compound and then infected with the HIV-1NL4-3 strain at a multiplicity of infection (MOI) of 1. At 24 h after infection, the viral infectivity and cell viability were determined as described in the Materials and Methods section. […] (B) 2 × 10^5 TZM-bl cells growing in 6-well plates were infected with HIV-1 (MOI = 1), transfected with a Tat-expressing plasmid (2 μg) or treated with PMA ([…]) upon indicated compounds at indicated concentrations, respectively. At 24 h after treatment, LTR promoter activity was determined via a Bright-Glo Luciferase Assay Kit. The relative activities are represented as the mean ± SD (n = 3) compared with the DMSO vesicle. (C) The biotinylated TAR RNA (2 nM) was incubated with ARM peptide (100 nM) in the presence of increasing amounts of the hit compound and separated on a 3–12% native polyacrylamide gel. The mobility of biotinylated TAR RNA was detected by chemiluminescence.
The inhibitory effect of hit compounds on Tat-mediated transcription was determined using doxycycline (Dox)-inducible Tat-expressing TZM-bl cells that express the LTR-driven firefly luciferase (F-Luc) gene under the control of Tat upon Dox treatment, as described previously but with minor modifications. In brief, 1 × 10^4 of the cells were cultured in 96-well plates, treated with compounds at a concentration of 10 µM (in the second round of screening), and then treated with Dox (final concentration: 50 ng/mL). After 24 h, the inhibitory effect of the hit compounds on Tat activity was determined by measuring F-Luc activity using a Bright-Glo Luciferase Assay Kit (Promega, Madison, WI, USA). For the dose–response assay, cells cultured in 100 μL medium were treated with 50 μL of 1:2 serially diluted compounds at concentrations ranging from 0 to 12.5 µM and then treated with 50 μL of Dox (final concentration: 50 ng/mL). At 24 h post-treatment, the F-Luc activity was determined as described above. All luminescence assays were carried out in a SpectraMax Paradigm Microplate Reader (Molecular Devices, San Jose, CA, USA), and the data were expressed as a relative percentage (%) compared to the DMSO control (vehicle) in the presence of Dox. The experiments were performed in triplicate.

[2] = test system: peripheral blood mononuclear cells; assay: Cell viability in PBMCs (PrestoBlue); format: cell-based; conditions: primary PBMCs, 72 h
Protocol: (§2) Figure 6 Phytohemagglutinin-preactivated peripheral blood mononuclear cells were infected with HIV-1NL4-3 (A) or HIV-1AD8 (B) at an MOI of 0.1 for 2 h and then treated with compounds at indicated concentrations for 72 h. […] The data are expressed as the mean ± SD (n = 3). * p < 0.05 indicates a comparison with the cells treated with DMSO (vehicle). ARVs, anti-retroviral drugs; EFV, efavirenz; DOL, dolutegravir; AZT, azidothymidine.
(§3) The experiments were performed in triplicate.

TZM-bl cells = assay: in vitro; conditions: human, 24 h
Protocol: as §1
(§4) To determine the inhibitory effect of hit compounds on HIV-1 infection, we used TZM-bl cells (also referred to as JC53BL-13), which express HIV-1 receptors and contain the LTR-driven F-Luc gene controlled by HIV-1 infection, as described previously but with some minor modifications. Briefly, 1 × 10^4 TZM-bl cells cultured on 96-well plates were treated in triplicate wells with 1:2 serially diluted compounds at concentrations ranging from 0 to 12.5 µM. […] At 24 h after infection, the inhibitory effect of the hit compounds on infectivity was determined using the Bright-Glo Luciferase Assay Kit (Promega). The dose–response data are expressed as a relative percentage compared to the DMSO control (vehicle). The inhibitory effects of the hit compounds on HIV-1 replication were determined as previously described. […] After infection, the cells were treated with hit compounds at the indicated concentrations at 3–5 days after treatment, and the inhibitory effect of hit compounds on viral replication was determined by the titration of virions from the cell supernatant using a p24 […]™ Assay Kit (PerkinElmer) according to the manufacturer’s instructions. Cell viability was determined using resazurin-based PrestoBlue™ cell viability reagent (Thermo Fisher Scientific, Waltham, MA, USA) according to the manufacturer’s instructions. […]

in vitro = conditions: human
Protocol: as §1, §4

TAR RNA = assay: RNA gel mobility shift assay (biotinylated TAR RNA and ARM peptide); format: binding, HIV-1; conditions: 2 nM biotinylated TAR RNA, 100 nM ARM peptide
Protocol: To determine the inhibitory effect of hit compounds on the Tat (ARM)-TAR RNA interaction, a gel shift assay was carried out using the LightShift Chemiluminescent RNA EMSA Kit (Thermo Scientific) according to the manufacturer’s instructions, but with minor modifications suitable for our experiment. Briefly, 2 nM of 5′-biotinylated TAR RNA (nt 31) and 100 nM of ARM peptide were incubated with increasing amounts of hit compounds in the 1× REMSA binding buffer (10 mM HEPES pH 7.5, 10 mM MgCl2, 5 mM KCl, 1 mM DTT, and v/v 5 % glycerol) supplemented with 8 units/reaction of RNase OUT (Invitrogen) (final: 20 µL) at 20 °C for 20 min. Subsequently, the reaction was separated on a 3–12% native gradient PAGE gel. The RNA was then transferred to a nylon membrane to detect the mobility-shifted biotinylated TAR RNA using StAV-horseradish peroxidase conjugate. Chemiluminescence was detected using a GBox Chemi chemi-luminometer (Syngene, Fredrick, MD, USA).

HIV-1NL4-3 (X4-tropic) = assay: HIV-1 replication assay in PBMCs (p24), HIV-1NL4-3; format: cell-based; conditions: PHA-preactivated PBMCs, MOI 0.1, 72 h; 460-G06 at 12.5-100 nM
Protocol: as §2, §3

HIV-1NL4-3 = assay: HIV-1 infectivity in TZM-bl cells (LTR-driven F-Luc); format: cell-based; conditions: Human immunodeficiency virus 1, TZM-bl, 24 h, read-out: IC50 of Infectivity
Protocol: as §1
To determine the inhibitory effect of hit compounds on HIV-1 infection, we used TZM-bl cells (also referred to as JC53BL-13), which express HIV-1 receptors and contain the LTR-driven F-Luc gene controlled by HIV-1 infection, as described previously but with some minor modifications. Briefly, 1 × 10^4 TZM-bl cells cultured on 96-well plates were treated in triplicate wells with 1:2 serially diluted compounds at concentrations ranging from 0 to 12.5 µM. Subsequently, the cells were infected with HIV-1NL4-3 virus obtained from the transfection of 293T cells at a multiplicity of infection (MOI) of 1. At 24 h after infection, the inhibitory effect of the hit compounds on infectivity was determined using the Bright-Glo Luciferase Assay Kit (Promega). The dose–response data are expressed as a relative percentage compared to the DMSO control (vehicle). The inhibitory effects of the hit compounds on HIV-1 replication were determined as previously described. Briefly, 4 × 10^5 PBMCs pre-activated with phytohemagglutinin M (PHA-M) were washed with fresh media and then infected with HIV-1NL4-3 or HIV-1AD8 at an MOI of 0.1 by spinoculation for 2 h. After infection, the cells were treated with hit compounds at the indicated concentrations at 3–5 days after treatment, and the inhibitory effect of hit compounds on viral replication was determined by the titration of virions from the cell supernatant using a p24 […]™ Assay Kit (PerkinElmer) according to the manufacturer’s instructions. Cell viability was determined using resazurin-based PrestoBlue™ cell viability reagent (Thermo Fisher Scientific, Waltham, MA, USA) according to the manufacturer’s instructions. The data are presented as relative percentages compared to the DMSO control (vehicle). The experiments were performed in triplicate.

HIV-1AD8 (R5-tropic) = assay: HIV-1 replication assay in PBMCs (p24), HIV-1AD8; format: cell-based; conditions: PHA-preactivated PBMCs, MOI 0.1, 72 h; 460-G06 at 12.5-100 nM
Protocol: as §2, §3

SMILES: CN1C/C=C/CCOc2cccc(c2)-c2ccnc(n2)Nc2cccc(c2)C1 [Hit 460-G06, (E)-6-methyl-12-oxa-3,6-diaza-2(4,2)-pyrimidine-1,4(1,3)-dibenzenacyclododecaphan-8-ene]
- dose response of Tat activity (F-Luc), in words ([1]; 0-12.5 μM, bl-DTR cells): gradual inhibition of F-Luc activity
- IC50 ([1]; Human immunodeficiency virus 1, 24 h, read-out: IC50 of Tat Activity): 0.011 ± 0.001 µM
- cell viability / cytotoxicity in PBMCs, in words [2]: without a severe decrease in cell viability; also recorded: such cytotoxicity was not observed
- concentration at which cytotoxicity is indicated (TZM-bl cells): over 0.1 μM
- CC50 at 24 h (in vitro): 4.94 ± 0.44 µM
- Kd (TAR RNA): 132 µM
- dissociation of ARM from TAR RNA, in words (TAR RNA): directly bound to the TAR RNA and efficiently dissociated the ARM from TAR RNA
- inhibition of viral replication, in words (HIV-1NL4-3 (X4-tropic)): inhibited viral replication in a dose-dependent manner
- IC50 (HIV-1NL4-3): 0.013 ± 0.003 µM
- inhibition of viral replication, in words (HIV-1AD8 (R5-tropic)): inhibited viral replication in a dose-dependent manner
